What was measured:
[1] = biological target: T1, human testosterone 5α-reductase-1 (Homo sapiens, UniProt P18405); test: in vitro inhibition of cloned human testosterone 5α-reductase-1 (test method 4); assay type: biochemical
T1 construct: expressed in transfected cells
T1 sequence (P18405 1-259): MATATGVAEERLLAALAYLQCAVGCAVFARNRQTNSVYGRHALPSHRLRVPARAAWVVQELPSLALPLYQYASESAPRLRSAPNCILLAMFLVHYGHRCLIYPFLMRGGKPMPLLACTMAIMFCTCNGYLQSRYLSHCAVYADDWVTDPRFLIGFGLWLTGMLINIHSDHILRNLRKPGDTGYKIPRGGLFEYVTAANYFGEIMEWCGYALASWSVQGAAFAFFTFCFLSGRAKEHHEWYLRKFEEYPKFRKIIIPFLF
Excerpt: (4) The compounds of the formula (I) may be tested in vitro for human testosterone 5α-reductase-1 inhibitory activity using cloned human testosterone 5α-reductase-1 according to the procedure described in Proc. Natl. Acad. Sci. USA, 87, 3640 (1990).
(§1) The data were obtained using test method (4) set out on page 27 of the specification and test method (2) described on pages 24 to 26 of the specification, respectively.

[2] = biological target: T2, human testosterone 5α-reductase-2 (Homo sapiens, UniProt P31213); test: in vitro inhibition of human testosterone 5α-reductase-2 from hyperplastic human prostate tissue (test method 2); assay type: biochemical; details: hyperplastic human prostate particulate, pH 5.2, 37° C., 30 minutes
T2 construct: using tissue from hyperplastic human prostates; from tissue; host or cells: hyperplastic human prostate, 100,000G particulate preparation
T2 sequence (P31213 1-254): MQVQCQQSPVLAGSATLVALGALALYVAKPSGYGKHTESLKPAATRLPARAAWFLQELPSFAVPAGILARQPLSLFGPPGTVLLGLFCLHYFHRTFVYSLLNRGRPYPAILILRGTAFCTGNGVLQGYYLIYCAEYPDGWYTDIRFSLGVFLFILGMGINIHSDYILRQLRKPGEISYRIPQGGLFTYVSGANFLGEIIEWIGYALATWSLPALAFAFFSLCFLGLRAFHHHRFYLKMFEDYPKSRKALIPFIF
Method: (2) The compounds of the formula (I) may be tested for their potency in inhibiting human testosterone 5α-reductase-2 using tissue from hyperplastic human prostates. In determining inhibitory potency against human prostatic 5α-reductase-2 the following procedure was employed:
Frozen human prostate tissue was pulverised in liquid nitrogen using a steel mortar and pestle. The powdered tissue was homogenised in 4 volumes of Buffer A (20 mM sodium phosphate, pH 6.5, containing 0.32M sucrose, 1 mM dithiothreitol and 50 μM NADPH) with an Ultra-Turrax homogeniser (Janke and Kunkel GmBH & Co., Staufen i. BR., Germany). The homogenate was centrifuged at 500G for 5 minutes to remove large particles of tissue, and the supernatant was then centrifuged at 100,000G for 1 hour. The resulting pellet was dispersed in Buffer A (1 ml per g of prostate tissue originally used) with the Ultra-Turrax homogeniser. This particulate preparation was then filtered through 2 layers of cheesecloth and the filtrate was stored as 2ml samples at -70° C.
The following components, dissolved in Buffer B (25 mM citrate phosphate buffer, pH 5.2), were added to a test tube: 100 μl of [^3 H]-testosterone (1 μCi, 1 nmol; Du Pont, NEN Research Products, Stevenage, U.K.), 100 μl of NADPH regeneration system (5 mM NADPH, 50 mM glucose 6-phosphate, 5 units/ml glucose 6-phosphate dehydrogenase), a compound of the formula (I) dissolved in 5 μl of dimethyl sulphoxide, and Buffer B to give a final reaction volume of 1 ml. The mixture was warmed to 37° C. and the reaction started by addition of an aliquot of prostate particulate suspension. The reaction mixture was incubated at 37° C. for 30 minutes and was then quenched by addition, with vigorous mixing, of 2 ml of ethyl acetate containing 20 μg each of testosterone and 5α-dihydrotestosterone as carriers. The aqueous and organic layers were separated by centrifugation at 2000 G for 10 minutes. The organic layer was transferred to a second test tube and evaporated to dryness under nitrogen. The residue was dissolved in 50-80μl of absolute ethanol, spotted onto a silica gel 60 F254 TLC plate (E. Merck, Darmstadt, Germany) and developed in dichloromethane:acetone (185:15).
The radiochemical content in the bands of the substrate (testosterone) and the product (5α-dihydrotestosterone) were determined with a RITA Radio TLC Analyser (Raytest Instruments Ltd., Sheffield, U.K.). The percent of recovered radiolabel converted to 5α-dihydrotestosterone was calculated and used to determine enzyme activity. All incubations were conducted so that no more than 15% of substrate (testosterone) was converted to product.
The experimentally obtained data for a range of inhibitor concentrations was computer fitted to a sigmoidal dose-response curve and concentrations of compound giving 50% inhibition of 5α-reductase activity (IC50 's) were calculated using a SIGFIT program (De Lean, A., Munson, P. J. and Rodbard, D., American Journal of Physiology, 235, E97 (1978)).
as §1

Compound	IC50 [1] [nM]	IC50 [2] [nM]
CCCCC1(c2ccc(CCC)cc2)Oc2ccc(CC(=O)c3cn(CCCC(=O)O)c4ccccc34)cc2O1 (stereo not drawn) [Example 1, 4-(3-[(2-n-Butyl-2-[4-n-propyl]phenyl-1,3-benzodioxolan-5-yl)methylcarbonyl]indol-1-yl)butanoic acid]	15.5	6.9
CCCCCCC1(c2ccc(CCC)cc2)Oc2ccc(CC(=O)c3cn(CCCC(=O)O)c4ccccc34)cc2O1 (stereo not drawn) [Example 2]	24	16.7
CCCc1ccc(C2(CCC)Oc3ccc(CC(=O)c4cn(CCCC(=O)O)c5ccccc45)cc3O2)cc1 (stereo not drawn) [Example 3]	14	13.3
CCCCCC1(c2ccc(CCC)cc2)Oc2ccc(CC(=O)c3cn(CCCC(=O)O)c4ccccc34)cc2O1 (stereo not drawn) [Example 4]	11	16.9
CCCCC1(c2ccc(CC)cc2)Oc2ccc(CC(=O)c3cn(CCCC(=O)O)c4ccccc34)cc2O1 (stereo not drawn) [Example 5, 4-(3-[(2-n-butyl-2-[4-ethyl]phenyl-1,3-benzodioxolan-5-yl)methylcarbonyl]indol-1-yl)butanoic acid]	11	4.5
CCCCC1(c2ccc(CCC)cc2)Oc2ccc(CC(=O)c3cn(CCCC(=O)O)c4ccccc34)cc2O1 (stereo not drawn) [Example 6]	17.5	2.3

From US5696146A, “Indole derivatives as steroid 5α-reductase inhibitors” (Pfizer Inc., priority 1993, dated 1997)
